Results on one substance are retold here after patent US20250340661A1, “ANTI CD40 ANTIBODY, ANTIGEN BINDING FRAGMENT AND MEDICAL USE THEREOF” (Jiangsu Hengrui Pharmaceuticals Co., Ltd., priority 2021, published 2025).

For orientation: EC50 means the concentration giving half of the maximal effect. As usually defined, the IC50 is the midpoint of a concentration-inhibition curve.

The target of experiment [1] is T1, CD40 (Homo sapiens, UniProt P25942). The experiment can be described thus: FACS binding of human-rabbit chimeric anti-CD40 antibodies to Raji cells. As for the experimental part:
Raji cells are of a tumor cell line that overexpresses human CD40. 2E5 Raji cells were inoculated onto a 96-well plate. 100 μL of a test antibody was added, with the highest final concentration of 100 nM. The antibody was 5-fold diluted to 8 concentrations. The plate was incubated at 4° C. for 1 h. The plate was washed once with wash buffer, and an AF647-conjugated anti-human IgG antibody (Jackson Immunoresearch Laborotories, Cat. #205-609-088) was added at a dilution ratio of 1:500. The plate was incubated at 4° C. for 30 min. The plate was washed once with wash buffer, and fluorescence intensity was measured using a flow cytometer. The binding EC50 values of the anti-CD40 antibodies for CD40 were calculated. The anti-CD40 antagonistic antibody CFZ533 (i.e., iscalimab, Nova) was used as a positive control, and the heavy and light chain variable region sequences were derived from sequence 5 and sequence 2 of U.S. Pat. No. 8,277,810B, respectively.
A general note: In flow cytometry, cells or beads pass a laser one at a time.

For experiment [2], the system named is human CD40 transgenic mice. The experiment can be described thus: Mouse skin graft rejection model. It counts as in vivo. From the text: Male Balb/c mice, 6 weeks old, were purchased from the Laboratory Animal Management Department, Shanghai Institute of Planned Parenthood Research. Housing environment: SPF; certification number: 20180006023393.
On day −2 of the experiment, the mice were intraperitoneally injected with tacrolimus FK506 or CD40 antagonistic antibodies. On day 0 of the experiment, donor Balb/c mice and C57BL6/J mice were anesthetized with 4% chloral hydrate. The tails of the donor mice were removed, and full circles of skin, 1 cm in length, were isolated from the tails. The hair on the acceptor mice's back was removed, and an incision was made along the skin layer. An equal area of skin was removed while preserving the back fat and connective tissue. The donor skin was placed on the acceptor mice's incision site, and the incision was closed with glue. The mice were then placed back in cages to recover.
The mice were dosed according to the administration regimens in Table 17. After 7 days of recovery, the mouse skin survival was observed daily and rejection scores were recorded.

For experiment [3], the target named is T1, CD40. Put plainly: HEK-Blue CD40L reporter gene cell activity of humanized anti-CD40 antibodies. It counts as cell-based. On the set-up: host or cells: HEK-Blue CD40L cells. As to conditions: read-out: IC50 inhibition of CD40 reporter gene cell activity. As to the method:
HEK-Blue CD40L cells were purchased from Invivogen (Cat. #hkb-cd40). The cells were stably transfected with the human CD40 gene and the NF-kB-mediated SEAP genome. The activation level of the CD40 signaling pathway can be characterized by measuring the amount of secreted SEAP in the supernatant using QUANTI-Blue, the substrate of SEAP. In the assays, the inhibitory effects of the CD40 antagonistic antibodies on the CD40L-induced HEK-Blue CD40L cell activation were measured, and the in vitro cell activity of the CD40 antagonistic antibodies was assessed based on IC50. HEK-Blue CD40L cells were cultured in a DMEM medium containing 10% FBS, 100 μg/mL Normocin, 100 μg/mL Zeocin and 30 μg/mL Blasticidin, with 2-3 passages a week. HEK-Blue CD40L cells were plated at 5E4/well into a 96-well cell culture plate (the medium was DMEM, 10% FBS, 100 μg/mL Normocin) and incubated overnight. […] CD40L-his (R&D, 2706-CL-025) and anti-His antibody (R&D, MAB050-500) were added, and the plate was incubated overnight. After cell centrifugation, 20 μL of the cell supernatant was transferred to a new 96-well white plate, and 180 μL of QUANTI-Blue substrate solution was added. The plate was incubated in the dark for 15 min. The absorbance at 620 nm was measured with an Envision microplate reader, and IC50 values were calculated and used to assess the in vitro cell activity of the CD40 antagonistic antibodies.

Like-named read-outs stand apart in the source and are kept apart here.

T1 sequence (P25942 21-277): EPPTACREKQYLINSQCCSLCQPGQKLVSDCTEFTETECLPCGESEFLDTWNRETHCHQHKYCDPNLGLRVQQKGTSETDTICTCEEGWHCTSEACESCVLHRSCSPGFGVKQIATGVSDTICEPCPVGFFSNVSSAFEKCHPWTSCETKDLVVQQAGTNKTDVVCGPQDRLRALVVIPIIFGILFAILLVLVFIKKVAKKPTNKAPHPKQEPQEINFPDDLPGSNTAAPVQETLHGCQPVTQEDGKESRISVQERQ

Regarding “CFZ533: anti-CD40 antagonistic antibody (iscalimab), positive control; variable regions from U.S. Pat. No. 8,277,810B [reference compound]”, in the experiment with CD40 [1], the midpoint of the response, the EC50, lay at 2.41 nM. Besides, the Skin graft score amounted to 2.7 in experiment [2] (8 days, 3 mpk, scale 3 (no rejection) to 0); 2.9 in experiment [2] (8 days, 10 mpk, scale 3 to 0); 2.1 in experiment [2] (10 days, 3 mpk, scale 3 to 0); 2.1 in experiment [2] (10 days, 10 mpk, scale 3 to 0); 0 in experiment [2] (15 days, 3 mpk, scale 3 to 0); 0 in experiment [2] (15 days, 10 mpk, scale 3 to 0). In addition, the Skin graft score is recorded as 0 in experiment [2] (20 days, 3 mpk, scale 3 to 0) and 0 in experiment [2] (20 days, 10 mpk, scale 3 to 0). Further, the “Skin graft survival rate (%)” value in experiment [2] (Day 15, 3 mpk ip) came to 0%; in experiment [2] (Day 15, 10 mpk ip), 0%. Further, the concentration for half-maximal inhibition (IC50) with CD40 [3] (Assay 1) came out at 0.36 nM; with CD40 [3] (Assay 2), 0.35 nM.
